Measured values as given in patent US10808275B2, “Use of at least one chromogenic and/or fluorogenic phosphatase substrate for the detection and/or enumeration of enterobacteria in a sample” (BIOMERIEUX, priority 2013, dated 2020).

Experiments:
enterobacteria = experiment: Specificity of phosphatase substrates: growth and coloration of enterobacteria strains on chromogenic agar media; assay type: cell-based; details: for coloration: % of enterobacteria strains coloured; for coloration >= 1: % of enterobacteria strains positive (intensity >= 1 on 0-4 reading scale); for growth: enterobacteria strains grown / 31 tested
Method: (§1) 38 bacterial strains, among which 31 enterobacteria and 7 non-enterobacteria, were tested on media containing various phosphatase substrates. Readings of the dishes were then taken at 24 h.
(§2) Then phosphatase substrates are added as follows: • Medium 1: addition of X-phosphate (X-P) at 60 mg/l • Medium 2: addition of Rose-phosphate (Rose-P) at 300 mg/L • Medium 3: addition of Magenta-phosphate (Magenta-P) at 300 mg/L • Medium 4: addition of Purple-phosphate (Purple-P) at 200 mg/L
(§3) The media are divided into Petri dishes.
(§4) Inoculation is performed from 24 h pre-cultures at 30° C. or 37° C., depending on the species, on Trypticase-soy medium.
(§5) Suspension in 0.5 McF physiological water is performed, and then the strains are inoculated with a 10 μl calibrated oese.
(§6) Readings are taken after 24 h and 48 h of incubation at 37° C.
(§7) Colonies with coloration intensities greater than or equal to 1 were considered positive, applying the reading scale below.
(§8) Reading scale of enzymatic activity/coloration • 0=no activity • 0.5=very pale coloration • 1=low-intensity distinct coloration • 2=medium-intensity obvious coloration • 3=intense coloration present, • 4=highly intense coloration present.

[1] = tested on: non-fermenting Gram-negative; experiment: Specificity of phosphatase substrates: growth and coloration of non-enterobacteria strains on chromogenic agar media; assay type: cell-based, non-fermenting Gram-negative bacteria; details: for coloration >= 1: % positive non-fermenting Gram-negative strains; for growth: non-fermenting Gram-negative strains grown / 7 tested
Method: as §1, §2, §3, §4, §5, §6, §7, §8

Row | Compound | sensitivity of the substrate compared with the other substrates (enterobacteria; 24 h) | sensitivity of the substrate compared with the other substrates (enterobacteria; 48 h) | coloration (enterobacteria; 48 h at 37° C.) | coloration >= 1 (enterobacteria; 24 h at 37° C.) | growth (enterobacteria; 24 h at 37° C.) | growth (enterobacteria; 48 h at 37° C.) | coloration >= 1 ([1]; 24 h at 37° C.) | coloration >= 1 ([1]; 48 h at 37° C.) | growth ([1]; 24 h at 37° C.) | growth ([1]; 48 h at 37° C.)
1 | 5-bromo-6-chloro-3-indoxyl-phosphate [Magenta-P] | most sensitive | largely identical | 100% | 90% | 30/31 | 31/31 | 0% | 0% | 5/7 | 7/7
2 | O=P(O)(O)Oc1c[nH]c2cc(Cl)ccc12 [Rose-P, 6-chloro-3-indoxyl-phosphate] | least sensitive | least sensitive | 94% | 77% | 30/31 | 31/31 | 0% | 0% | 5/7 | 7/7
3 | O=P(O)(O)Oc1c[nH]c2ccc(Br)c(Cl)c12 [X-P, 5-bromo-4-chloro-3-indoxyl-phosphate] | most sensitive | largely identical | 97% | 90% | 30/31 | 31/31 | 0% | 0% | 7/7 | 7/7
